Converted amounts (≈) assume the structure as drawn.
Key:
[1] = test system: E. coli; assay: Serial Dilution Test (Broth Titer Test), antibacterial, E. coli; type: cell-based, Escherichia coli; conditions: Escherichia coli, read-out: SDT, MIC
Method: (§1) Antibacterial and antifungal activity were evaluated by the Serial Dilution Test (Broth Titer Test) wherein a series of broths containing varying dilutions of a test compound and an organism are halved starting with 1:1,000. The values shown represent the maximum dilution in parts per million at which the compound under evaluation renders complete control of the organism. Pseudomonas aeruginosa (P), Staphylococcus aureus (S), and Escherichia coli (E) were the bacterial organisms employed in this test, and the fungi employed were Aspergillus niger (A) and Rhizopus stolonifer (R).
(§2) ^a In vitro serial dilution test (SDT), minimum inhibitory
(§3) concentrations (MIC) against E = E. coli, P = Ps. aeruginosa, S =
(§4) Staphylococcus aureus, A = A. niger, and R = Rhizopus stolonifer are give
(§5) in parts per million of a biocide.

[2] = test system: Ps. aeruginosa; assay: Serial Dilution Test (Broth Titer Test), antibacterial, Ps. aeruginosa; type: cell-based, Pseudomonas aeruginosa; conditions: Pseudomonas aeruginosa, read-out: SDT, MIC
Method: as §1, §2, §3, §4, §5

[3] = test system: Staphylococcus aureus; assay: Serial Dilution Test (Broth Titer Test), antibacterial, Staphylococcus aureus; type: cell-based; conditions: Staphylococcus aureus, read-out: SDT, MIC
Method: as §1, §2, §3, §4, §5

[4] = test system: A. niger; assay: Serial Dilution Test (Broth Titer Test), antifungal, A. niger; type: cell-based, Aspergillus niger; conditions: Aspergillus niger, in vitro serial dilution test, read-out: SDT, MIC
Method: as §1, §2, §3, §4, §5

[5] = test system: Rhizopus stolonifer; assay: Serial Dilution Test (Broth Titer Test), antifungal, Rhizopus stolonifer; type: cell-based; conditions: in vitro serial dilution test; R = Rhizopus stolonifer; read-out: SDT, MIC
Method: as §1, §2, §3, §4, §5

[6] = test system: Helminthosporium teres; assay: whole plant or invertebrate; type: in vivo; conditions: Pyrenophora teres, in Hordeum vulgare; 300 ppm; read-out: Disease Control Level, BH
[7] = test system: Botrytis cinerea; assay: whole plant or invertebrate; type: in vivo; conditions: Botrytis cinerea; 300 ppm; read-out: Disease Control Level, BOT
[8] = test system: Erysiphe polygoni; assay: whole plant or invertebrate; type: in vivo; conditions: read-out: Disease Control Level, BPM
[9] = test system: Plasmopora viticola; assay: whole plant or invertebrate; type: in vivo; conditions: 300 ppm; read-out: Disease Control Level, GDM
[10] = test system: Piricularia oryzae; assay: whole plant or invertebrate; type: in vivo
[11] = test system: Phytophthora infestans; assay: whole plant or invertebrate; type: in vivo; conditions: Phytophthora infestans, in Solanum lycopersicum, read-out: Disease Control Level, TLB
[12] = test system: Puccinia graminis f. sp. tritici; assay: whole plant or invertebrate; type: in vivo, Puccinia graminis f. sp. tritici race 15B-2; conditions: Puccinia graminis, read-out: Disease Control Level, WSR
[13] = Pyricularia oryzae, read-out: Disease Control Level, RB

Q: For `Cc1c(SC(=S)N(C)C)sn(C2CCCCC2)c1=O` [Example 11], which MIC [1] is on record?
A: Its MIC is 500 µg/mL (≈ 1580 µM).

Q: And the MIC [2]?
A: Its MIC is 500 µg/mL (≈ 1580 µM).

Q: What about the MIC [3] of the same compound?
A: Its MIC is 500 µg/mL (≈ 1580 µM).

Q: And the MIC [4]?
A: The MIC was 500 µg/mL (≈ 1580 µM).

Q: What about the MIC [5] of the same compound?
A: Its MIC is 250 µg/mL (≈ 790 µM).

Q: And the pest or weed control at 300 ppm [6]?
A: Its pest or weed control at 300 ppm is 50%.

Q: And the pest or weed control at 300 ppm [7]?
A: The pest or weed control at 300 ppm was 50%.

Q: What about the pest or weed control at 300 ppm [8] of the same compound?
A: Its pest or weed control at 300 ppm is 50%.

Q: What about the pest or weed control at 300 ppm [9] of the same compound?
A: The pest or weed control at 300 ppm was 50%.

Q: What about the pest or weed control at 300 ppm [10, 13] of the same compound?
A: The pest or weed control at 300 ppm was 50%.

Q: And the pest or weed control at 300 ppm [11]?
A: Its pest or weed control at 300 ppm is 50%.

Q: And the pest or weed control at 300 ppm [12]?
A: The pest or weed control at 300 ppm was 70 to 89%.

Q: Which MIC [1] does the source give for `O=c1cc(N2CCCCC2)sn1CCc1ccccc1` [Example 14, 5-Piperidino-2-phenethyl-4-isothiazolin-3-one] here?
A: Its MIC is 500 µg/mL (≈ 1730 µM).

Q: What about the MIC [2] of the same compound?
A: Its MIC is 500 µg/mL (≈ 1730 µM).

Q: What about the MIC [3] of the same compound?
A: Its MIC is 500 µg/mL (≈ 1730 µM).

Q: What about the MIC [4] of the same compound?
A: The MIC was 250 µg/mL (≈ 867 µM).

Q: And the MIC [5]?
A: The MIC was 125 µg/mL (≈ 433 µM).

Q: What about the pest or weed control at 300 ppm [6] of the same compound?
A: Its pest or weed control at 300 ppm is 50%.

Q: And the pest or weed control at 300 ppm [7]?
A: The pest or weed control at 300 ppm was 50%.

Q: What about the pest or weed control at 300 ppm [8] of the same compound?
A: The pest or weed control at 300 ppm was 50%.

Q: And the pest or weed control at 300 ppm [9]?
A: The pest or weed control at 300 ppm was 50%.

Q: What about the “Disease Control Level, RB” value ([10]; 150 ppm) of the same compound?
A: The value was “A/E”.

Q: And the pest or weed control at 38 ppm [10, 13]?
A: The pest or weed control at 38 ppm was 50%.

Q: What about the pest or weed control at 75 ppm [10, 13] of the same compound?
A: Its pest or weed control at 75 ppm is 97 to 100%.

Q: And the pest or weed control at 300 ppm [10, 13]?
A: The pest or weed control at 300 ppm was 97 to 100%.

Q: What about the pest or weed control at 300 ppm [11] of the same compound?
A: The pest or weed control at 300 ppm was 50%.

Q: What about the pest or weed control at 38 ppm [12] of the same compound?
A: The pest or weed control at 38 ppm was 50%.

Q: What about the pest or weed control at 75 ppm [12] of the same compound?
A: Its pest or weed control at 75 ppm is 50%.

Q: What about the pest or weed control at 150 ppm [12] of the same compound?
A: The pest or weed control at 150 ppm was 50%.

Q: What about the pest or weed control at 300 ppm [12] of the same compound?
A: Its pest or weed control at 300 ppm is 97 to 100%.
